Source: patent US11053219B2, “Substituted pyridines as TYK2 inhibitors” (FronThera U.S. Pharmaceuticals LLC, priority 2018, dated 2021)

Columns and labels:
[1] = tested on: INFα induced pSTAT5 in human PBMC; experiment: INFα induced pSTAT5 in human PBMC; assay type: cell-based; conditions: human PBMC, INFα 5000 units/ml; read-out: p-STAT5 IC50
[2] = tested on: IL-2-induced pSTAT5 in human PBMC; experiment: IL-2-induced pSTAT5 in human PBMC; assay type: cell-based; conditions: IL-2 20 ng/ml
Protocol: (§1) Fresh Human PBMCs were resuspended in RPMI 1640 medium with 10% FBS. Cells were seeded in a round bottom 96-well plate at the concentration of 200,000 cells/well. A 10-point dilution series of test compound (top dose 10 uM, 1:5 dilution) was added to the well using the liquid dispenser (Tecan D300e) and incubated for 1 hour at 37 C. Then human IL-12 recombinant protein (R&D Systems) was added to the well at the final concentration of 10 ng/ml and incubated for 15 minutes at 37 C. Cell lysates were prepared and analyzed by Phospho STAT4 (Tyr693) Kit (Meso Scale Discovery) following manufacturer's protocol.
(§2) For calculation of the inhibition rate, the relative pSTAT4 signal of each well=pSTAT4 signal of each well−the average pSTAT4 signal of baseline. The inhibition %=(the average pSTAT4 signal of IL-12 treatment wells−the relative of pSTAT4 signal in each compound containing well)/the average pSTAT4 signal of IL-12 treatment wells*100%
(§3) The curve was plotted as the inhibition % (y-axis) vs. compounds concentration (x-axis) and was fitted with log(inhibitor) vs. normalized response—Variable slope by GraphPad Prism7.0. Control is BMS-986165:
(§4) Similar to the method for IL-12 induced pSTAT4 in human PBMC described above, these assays were performed to check if test compounds have cross-activity to JAK1. JAK2 and JAK3 pathways in human PBMC. The procedure is as described with change of stimuli to 10 ng/ml of GM-CSF or 20 ng/ml of IL-2.

[3] = tested on: GM-CSF-induced pSTAT5 in human PBMC; experiment: GM-CSF-induced pSTAT5 in human PBMC; assay type: cell-based; conditions: GM-CSF 10 ng/ml
Protocol: as §1, §2, §3, §4

[4] = Pharmacokinetic study in cynomolgus monkeys; assay type: in vivo; conditions: cynomolgus monkey, plasma; for Vd: read-out: Vdss
Protocol: (§5) The pharmacokinetics of test compounds were evaluated in male C57BL/6 mice, Sprague Dawley rats, Beagle dogs, and cynomolgus monkeys when administered via oral gavage and IV injection. The animals were fasted overnight before administration. Plasma samples were collected predose and at 0.5, 1, 3, 6, 9, 12, and 24 hours postdose. The samples were analyzed by LC/MS/MS and the concentration of test compound at each timepoint was determined by linear regression. Pharmacokinetic parameters were calculated from the plasma concentrations using Pheonix WinNonlin.

[5] = Pharmacokinetic study in Sprague Dawley rats; assay type: in vivo; conditions: rat, plasma; for Vd: read-out: Vdss
Protocol: as §5

[6] = Pharmacokinetic study in C57BL/6 mice; assay type: in vivo; conditions: male, mouse, plasma
Protocol: as §5

[7] = Pharmacokinetic study in Beagle dogs; assay type: in vivo; conditions: dog, plasma; for Vd: read-out: Vdss
Protocol: as §5

TYK2 (JH2 domain) = TYK2 (JH2 domain) (Homo sapiens (Human), UniProt P29597); experiment: TYK2 JH2 domain binding assay (DiscoverX KINOMEscan); conditions: 11-point 3-fold dilution, duplicate
Protocol: (§6) The assay is performed by combining three components: DNA-tagged kinase; immobilized ligand; and a test compound. The ability of the test compound to compete with the immobilized ligand is measured via quantitative PCR of the DNA tag.
(§7) The liganded beads were blocked with excess biotin and washed with blocking buffer (SeaBlock (Pierce), 1% BSA, 0.05% Tween 20, 1 mM DTT) to remove unbound ligand and to reduce non-specific binding. […] Test compounds were prepared as 111× stocks in 100% DMSO. All test compounds were shipped to DiscoverX in DMSO with concentration of 10 mM. Kds were determined using an 11-point 3-fold compound dilution series with three DMSO control points. Each compound was tested in duplicate. […] The compounds were then diluted directly into the assays such that the final concentration of DMSO was 0.9%. All reactions performed in polypropylene 384-well plate. Each was a final volume of 0.02 ml. […] The kinase concentration in the eluates was measured by qPCR.
(§8) The amount of kinase measured by qPCR (Signal; y-axis) is plotted against the corresponding compound concentration in nM in log 10 scale (x-axis). Binding constants (Kds) were calculated with a standard dose-response curve using the Hill equation:
The Hill Slope was set to −1.
Curves were fitted using anon-linear least square fit with the Levenberg-Marquardt algorithm.

JAK1 (JH2 domain) = JAK1 (JH2 domain) (Homo sapiens (Human), UniProt P23458); experiment: JAK1 JH2 domain binding assay (KINOMEscan); conditions: KINOMEscan; read-out: JAK1 (JH2 domain) binding Kd
Protocol: as §6, §7, §8
(§9) Similar to the method for TYK2 JH2 binding described above, JAK1 JH2 and JAK2 JH1 domain binding assay was performed using DiscoverX's KINOMEscan™, but with change of kinase domain.

JAK2 (JH1 domain) = JAK2 (JH1 domain) (Homo sapiens (Human), UniProt O60674); experiment: JAK2 JH1 domain binding assay (KINOMEscan)
Protocol: as §6, §7, §8, §9

[8] = Oral (2 mg/kg), NA: no detectable
[9] = Oral (2 mg/kg), NA: no detectable, read-out: C0 or Cmax (Cmax)
[10] = iv, I.V. (1 mg/kg), read-out: C0 or Cmax (C0)
[11] = Oral (5 mg/kg), read-out: C0 or Cmax (Cmax)
[12] = Oral (2 mg/kg), read-out: C0 or Cmax (Cmax)

Chain of JAK2 (JH1 domain) (O60674 849-1124): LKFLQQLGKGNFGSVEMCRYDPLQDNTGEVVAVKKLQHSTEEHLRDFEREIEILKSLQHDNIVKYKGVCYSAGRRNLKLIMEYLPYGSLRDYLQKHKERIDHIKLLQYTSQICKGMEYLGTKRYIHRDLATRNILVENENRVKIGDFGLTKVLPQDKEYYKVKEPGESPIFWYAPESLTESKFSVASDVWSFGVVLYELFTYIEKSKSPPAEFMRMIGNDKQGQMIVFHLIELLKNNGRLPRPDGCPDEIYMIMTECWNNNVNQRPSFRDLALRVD
Chain of JAK1 (JH2 domain) (P23458 583-855): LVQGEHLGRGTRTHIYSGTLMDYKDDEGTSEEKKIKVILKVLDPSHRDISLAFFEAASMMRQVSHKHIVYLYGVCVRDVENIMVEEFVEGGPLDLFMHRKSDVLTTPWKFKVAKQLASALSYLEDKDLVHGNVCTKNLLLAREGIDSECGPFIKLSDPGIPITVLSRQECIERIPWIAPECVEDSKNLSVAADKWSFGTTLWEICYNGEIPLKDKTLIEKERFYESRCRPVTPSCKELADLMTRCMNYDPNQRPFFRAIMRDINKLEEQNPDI
Chain of TYK2 (JH2 domain) (P29597 589-875): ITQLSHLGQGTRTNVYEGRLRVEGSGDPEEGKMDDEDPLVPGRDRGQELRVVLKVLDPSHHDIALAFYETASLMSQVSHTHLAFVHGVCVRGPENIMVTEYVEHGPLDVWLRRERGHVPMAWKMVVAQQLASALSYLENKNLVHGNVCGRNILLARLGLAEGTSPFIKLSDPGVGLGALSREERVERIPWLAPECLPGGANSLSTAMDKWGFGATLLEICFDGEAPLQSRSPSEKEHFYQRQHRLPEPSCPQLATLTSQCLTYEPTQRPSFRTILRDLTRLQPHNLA

## [2H]C([2H])([2H])CC(=O)c1cnc(NC(=O)C2CC2)cc1Nc1cccc(-c2ncn(C([2H])([2H])[2H])n2)c1OC [Example 195]
[1]
  IC50: < 100 nM
[2]
  IC50: 1000 to 10000 nM
[3]
  IC50: 1000 to 10000 nM
[4]; [8]
  AUC: 5420 ± 3250 ng·h/mL
  Tmax: 4 h
  bioavailability: 16.6 ± 9.95%
  half-life: 5.8 ± 0.73 h
[4]; [9]
  Cmax: 663 ± 497 ng/mL
[4]; iv, I.V. (1 mg/kg)
  AUC: 16300 ± 664 ng·h/mL
  clearance: 0.898 ± 0.04 mL/min/kg
  half-life: 7.65 ± 0.56 h
  Vd: 0.624 ± 0.03 L/kg
[4]; [10]
  Cmax: 1290 ± 106 ng/mL
[5]; Oral (5 mg/kg)
  AUC: 7440 ± 1400 ng·h/mL
  Tmax: 1.67 ± 0.58 h
  bioavailability: 46.7 ± 8.8%
  half-life: 2.37 ± 0.32 h
[5]; [11]
  Cmax: 1260 ± 226 ng/mL
[5]; iv, I.V. (1 mg/kg)
  AUC: 3190 ± 603 ng·h/mL
  clearance: 4.96 ± 0.91 mL/min/kg
  half-life: 2.14 ± 0.12 h
  Vd: 0.824 ± 0.11 L/kg
[5]; [10]
  Cmax: 2150 ± 123 ng/mL
[6]; Oral (10 mg/kg)
  Tmax: 0.5 h
  bioavailability: 41.7%
  half-life: 2.11 h
[6]; Oral (10 mg/kg), read-out: C0 or Cmax (Cmax)
  Cmax: 4300 ng/mL
[6]; iv, I.V. (2 mg/kg)
  clearance: 4.16 mL/min/kg
  half-life: 2.46 h
[6]; iv, I.V. (2 mg/kg), read-out: C0 or Cmax (C0)
  Cmax: 2950 ng/mL
[6]; iv, I.V. (2 mg/kg), read-out: Vdss
  Vd: 0.688 L/kg
[7]; Oral (2 mg/kg)
  AUC: 1520 ± 1330 ng·h/mL
  Tmax: 1.33 ± 0.58 h
  bioavailability: 26.2 ± 23%
  half-life: 5.73 ± 2.02 h
[7]; [12]
  Cmax: 285 ± 285 ng/mL
[7]; iv, I.V. (1 mg/kg)
  AUC: 2900 ± 453 ng·h/mL
  clearance: 5.31 ± 0.93 mL/min/kg
  half-life: 6.69 ± 0.39 h
  Vd: 3.04 ± 0.27 L/kg
[7]; [10]
  Cmax: 185 ± 8.4 ng/mL

## [2H]C([2H])([2H])CC(=O)c1cnc(Nc2cccc(C#N)n2)cc1Nc1cccc(-c2ncn(C([2H])([2H])[2H])n2)c1OC [Example 198]
[1]
  IC50: < 100 nM
[2]
  IC50: 100 to 1000 nM
[3]
  IC50: 1000 to 10000 nM
TYK2 (JH2 domain)
  Kd: ≤ 1 nM
JAK1 (JH2 domain)
  Kd: < 100 nM
JAK2 (JH1 domain)
  Kd: > 10000 nM
[4]; [8]
  AUC: 1230 ± 435 ng·h/mL
  Tmax: 4 h
  bioavailability: 59.4 ± 21.1%
  half-life: 1.28 ± 0.18 h
[4]; [9]
  Cmax: 246 ± 124 ng/mL
[4]; iv, I.V. (1 mg/kg)
  AUC: 1030 ± 159 ng·h/mL
  clearance: 16.1 ± 2.4 mL/min/kg
  half-life: 1.45 ± 0.22 h
  Vd: 1.94 ± 0.03 L/kg
[4]; [10]
  Cmax: 667 ± 82 ng/mL
[5]; Oral (5 mg/kg)
  AUC: 1190 ± 53 ng·h/mL
  Tmax: 1 ± 0.87 h
  bioavailability: 16.9 ± 0.76%
  half-life: 2.85 ± 2.8 h
[5]; [11]
  Cmax: 261 ± 35 ng/mL
[5]; iv, I.V. (1 mg/kg)
  AUC: 1400 ± 29 ng·h/mL
  clearance: 11.8 ± 0.22 mL/min/kg
  half-life: 1.22 ± 0.12 h
  Vd: 1.1 ± 0.065 L/kg
[5]; [10]
  Cmax: 1200 ± 70 ng/mL
[7]; Oral (2 mg/kg)
  AUC: 253 ± 48 ng·h/mL
  Tmax: 1.67 ± 0.58 h
  bioavailability: 54 ± 10%
  half-life: 1.42 ± 0.24 h
[7]; [12]
  Cmax: 68.8 ± 18 ng/mL
[7]; iv, I.V. (1 mg/kg)
  AUC: 234 ± 94 ng·h/mL
  clearance: 68.6 ± 28 mL/min/kg
  half-life: 4.29 ± 1.25 h
  Vd: 23.1 ± 4.59 L/kg
[7]; [10]
  Cmax: 182 ± 47.6 ng/mL
